The values that follow come from patent US20180360799A1, “Nitrofuran Derivatives That Induce Apoptosis in Breast Cancer Cells by Activating Protein Expression” (Oklahoma Medical Research Foundation, priority 2015, published 2018).

The assay concerns UPRE-Luciferase (UPRE-Luc) reporter. In words: UPRE-Luc reporter assay in HEK293 cells. The assay is classed as cell-based, human. Particulars: 3d 10 μM or Tm 1 μg/mL, 24 h. How it is done: FIG. 3G is a graph showing HEK293 cells stably expressing CHOP-Luc, ERSE-Luc, or UPRE-luc reporters were treated with DMSO, a 5-nitrofuran-2-amide derivative, or tunicamycin. HEK293 cells stably expressing CHOP-Luc, ERSE-Luc, or UPRE-luc reporters were treated with DMSO, compound 3d (10 μM), or Tm (1 μg/mL) for 24 h, and luciferase activity was measured using the Bright-Glo assay. Results are the means of 4 replicate wells and are representative of 3 independent experiments.
The inventor next asked whether the IRE1α and ATF6 branches of the unfolded protein response were also activated by compound 3d treatment of TNBC cells. […] XBP1 mRNA splicing, as measured by XBP1s levels, increased only slightly in the first 24 h after compound 3d treatment of HCC-1806 cells (from 11% of total XBP1 at 0 h to 15˜20% at 2˜24 h). […] Next, it was determined whether compound 3d activates the ATF6 pathway by evaluating its effect on the activity of an ER stress response elements (ERSE)-Luc reporter stably established in HEK293 cell line.
The HEK293T CHOP reporter cell line (CHOP-Luc) was previously described.^21 HEK293T cells were stably transfected with ERSE-Luciferase^25 and UPRE-Luciferase^23 reporters to generate ERSE-Luc and UPRE-Luc reporter cell lines, respectively. […] Luciferase activity was measured with a Bright-Glo kit 24 h later.

Take `CC1CCN(c2ccc(NC(=O)c3ccc([N+](=O)[O-])o3)cc2)CC1` [Compound 3d]: the “increase of UPRE-Luc luciferase activity” value is listed as “less than 2 fold”.
